According to US20220133717A1, “RABEXIMOD IN THE TREATMENT OF RHEUMATOID ARTHRITIS” (CYXONE AB, priority 2020, published 2022):
Like-named read-outs stand apart in the source and are kept apart here.

Experiments:
healthy male volunteers = experiment: Phase 1 clinical trial: safety and tolerability of single and multiple oral rising doses; type: in vivo, human
From the text: The Phase 1 study assessed the safety, tolerability, pharmacokinetics and pharmacodynamics of single and multiple oral rising doses of Rabeximod (in a capsule formulation) in healthy male volunteers. The study also included an open-label, randomised, two-period crossover part that was designed to investigate the effect of food on the pharmacokinetics of Rabeximod. In total, 87 healthy male subjects were enrolled into the study.

[1] = Phase II clinical trial: pharmacokinetics of plasma Rabeximod (PK subgroup); type: in vivo, human; details: for half-life / Tmax / AUC(0-t) / AUC / Cmax: human, plasma, oral
From the text: A total of 9 visits occurred over the course of the study (screening, randomisation [Day 0, baseline]. Day 1, and Weeks 2, 4, 6, 8, 12 and 16). The Day 1 visit was included for a subgroup of 36 patients (PK/PD subgroup) who were selected at specified study centres to also participate in the PK/PD aspect of the study. Individual patient duration in the study was approximately 126 days (a 14 day screening period, an 84 day treatment period [12 weeks], and a 28 day [4 week] follow-up period).
In addition to standard efficacy and safety assessments, it was planned that 40 patients in selected study centres would have blood draws at the beginning of the study (Day 1) and at the end of the study (Week 12) to assess the PK of Rabeximod. The actual number of patients who participated in the PK aspect of the study was 36. The ACR20, ACR50 and ACR70 are assessments of RA improvement. The mHAQ is a validated instrument used to assess patient satisfaction in activity of daily living. It was planned to use the Original DAS as the outcome measure, but this was replaced with DAS28 because it is used more frequently in therapeutic studies have been used in many RA studies.
[…] The study drug was to be taken at approximately the same time every morning, starting from Day 1. For the PK/PD subgroup, on the day when the PK/PD sampling was scheduled, study drug was to be taken after the first blood sampling. The study design of the treatment phase was double-blind. All study drug, including placebo, were identical in size, shape, colour and taste, thus allowing double-blind conditions to be maintained. All study personnel and patients remained blinded to the drug treatment assignments. Patients self-administered all doses of study drug end were instructed to return all residual, unused and empty packaging to the clinic at scheduled visits. If dosing compliance was not maintained at between 80% and 120% then the patient was to be withdrawn from the study. Patients in the PK/PD subgroup were to take study drug at the clinic on Day 1 and at Week 12. Compliance was monitored through drug accountability. The Investigator, or designee, maintained an inventory record of study drug received, dispensed, administered and returned to assure the Sponsor that study drug was not dispensed to any person who was not a patient under the terms and conditions set forth in the protocol. Clinically significant protocol deviations were identified based on criteria determined by the project leader to be clinically relevant. Deviations were reported on the CRFs. Additionally, upon completion of the study, certain deviations (e.g., visit window deviations) were identified through the use of SAS® programming.
The PK assessment of Rabeximod was performed in a subgroup of 36 patients during the study.
Concentration-time profiles for plasma Rabeximod following single (Day 1) and repeated administration (Week 12) of Rabeximod were determined.

Q: For `Cc1cc2nc3c4cc(Cl)ccc4n(CC(=O)NCCN(C)C)c3nc2cc1C` [Rabeximod, 9-Chloro-2,3-dimethyl-6-(N,N-dimethylaminoethylamino-2-oxoethyl)-6H-indolo-[2,3-b]quinoxaline], which tolerability (healthy male volunteers; multiple dose of 600 mg loading followed by 100 mg) is on record?
A: less well tolerated due to phototoxicity reactions

Q: And the tolerability (healthy male volunteers; multiple oral doses up to a 200 mg loading dose followed by 50 mg maintenance dose)?
A: well tolerated

Q: And the tolerability (healthy male volunteers; single dose of 600 mg)?
A: less well tolerated due to phototoxicity reactions

Q: What about the tolerability (healthy male volunteers; single oral doses up to 400 mg) of the same molecule?
A: well tolerated

Q: What about the “impact of methotrexate on the kinetics of Rabeximod” value ([1]; co-administered stable dose of methotrexate) of the same molecule?
A: does not appear to have an impact

Q: What about the “increase of geometric mean AUC0-τ, AUC0-t and Cmax with dose” value ([1]; dose range 6.25 to 37.5 mg, with stable dose of methotrexate) of the same molecule?
A: approximately dose-proportional

Q: What about the half-life ([1]; 6.25 mg, Week 12, 6.25 mg, read-out: geometric mean apparent terminal half-life (t1/2) (converted)) of the same molecule?
A: 81.5 h

Q: And the half-life ([1]; 15 mg, Week 12, 15 mg, read-out: geometric mean apparent terminal half-life (t1/2) (converted))?
A: 77.1 h

Q: What about the half-life ([1]; 37.5 mg, Week 12, 37.5 mg, read-out: geometric mean apparent terminal half-life (t1/2) (converted)) of the same molecule?
A: 111 h

Q: And the Tmax ([1]; 37.5 mg, single administration at 6.25, 15 and 37.5 mg, across all dose levels, with methotrexate, read-out: Tmax (median estimates))?
A: 5 to 8 h

Q: What about the Tmax ([1]; repeated administration, Week 12, read-out: Tmax (median estimates)) of the same molecule?
A: 2 to 4 h

Q: And the AUC(0-t) ([1]; po, 6.25 mg, Week 12, 6.25 mg once daily, RA patients, with methotrexate, read-out: AUC0-t, Median)?
A: 2810 ng·h/mL

Q: What about the half-life ([1]; po, 6.25 mg, Week 12, 6.25 mg once daily, RA patients, with methotrexate, read-out: T1/2 (apparent terminal half-life), Geometric mean (converted)) of the same molecule?
A: 81.5 h

Q: What about the half-life ([1]; po, 6.25 mg, Week 12, 6.25 mg once daily, RA patients, with methotrexate, read-out: T1/2 (apparent terminal half-life), Median (converted)) of the same molecule?
A: 86.6 h

Q: And the AUC ([1]; po, 6.35 mg, Day 1 (equivalent to AUC0-t), 6.35 mg, RA patients, with methotrexate, read-out: AUC0-τ, Geometric mean)?
A: 112 ng·h/mL

Q: What about the AUC ([1]; po, 6.35 mg, Day 1 (equivalent to AUC0-t), 6.35 mg, RA patients, with methotrexate, read-out: AUC0-τ, Median) of the same molecule?
A: 107 ng·h/mL

Q: And the Cmax ([1]; po, 6.35 mg, Day 1, 6.35 mg, RA patients, with methotrexate, read-out: Cmax, Geometric mean)?
A: 7.92 ng/mL

Q: And the Cmax ([1]; po, 6.35 mg, Day 1, 6.35 mg, RA patients, with methotrexate, read-out: Cmax, Median)?
A: 7.05 ng/mL

Q: What about the Tmax ([1]; po, 6.35 mg, Day 1, 6.35 mg, RA patients, with methotrexate, read-out: Tmax, Median) of the same molecule?
A: 8.03 h

Q: What about the AUC(0-t) ([1]; po, 6.35 mg, Week 12, 6.35 mg once daily, RA patients, with methotrexate, read-out: AUC0-t, Geometric mean) of the same molecule?
A: 2530 ng·h/mL

Q: What about the AUC ([1]; po, 6.35 mg, Week 12, 6.35 mg once daily, RA patients, with methotrexate, read-out: AUC0-τ, Geometric mean) of the same molecule?
A: 587 ng·h/mL

Q: What about the AUC ([1]; po, 6.35 mg, Week 12, 6.35 mg once daily, RA patients, with methotrexate, read-out: AUC0-τ, Median) of the same molecule?
A: 710 ng·h/mL

Q: What about the Cmax ([1]; po, 6.35 mg, Week 12, 6.35 mg once daily, RA patients, with methotrexate, read-out: Cmax, Geometric mean) of the same molecule?
A: 31 ng/mL

Q: And the Cmax ([1]; po, 6.35 mg, Week 12, 6.35 mg once daily, RA patients, with methotrexate, read-out: Cmax, Median)?
A: 37.5 ng/mL

Q: What about the Tmax ([1]; po, 6.35 mg, Week 12, 6.35 mg once daily, RA patients, with methotrexate, read-out: Tmax, Median) of the same molecule?
A: 2.17 h

Q: And the AUC ([1]; po, 15 mg, Day 1 (equivalent to AUC0-t), 15 mg, RA patients, with methotrexate, read-out: AUC0-τ, Geometric mean)?
A: 282 ng·h/mL

Q: And the AUC ([1]; po, 15 mg, Day 1 (equivalent to AUC0-t), 15 mg, RA patients, with methotrexate, read-out: AUC0-τ, Median)?
A: 254 ng·h/mL

Q: What about the Cmax ([1]; po, 15 mg, Day 1, 15 mg, RA patients, with methotrexate, read-out: Cmax, Geometric mean) of the same molecule?
A: 18.3 ng/mL

Q: What about the Cmax ([1]; po, 15 mg, Day 1, 15 mg, RA patients, with methotrexate, read-out: Cmax, Median) of the same molecule?
A: 16 ng/mL

Q: What about the Tmax ([1]; po, 15 mg, Day 1, 15 mg, RA patients, with methotrexate, read-out: Tmax, Median) of the same molecule?
A: 6.04 h

Q: And the AUC(0-t) ([1]; po, 15 mg, Week 12, 15 mg once daily, RA patients, with methotrexate, read-out: AUC0-t, Geometric mean)?
A: 4970 ng·h/mL

Q: And the AUC(0-t) ([1]; po, 15 mg, Week 12, 15 mg once daily, RA patients, with methotrexate, read-out: AUC0-t, Median)?
A: 5590 ng·h/mL

Q: And the AUC ([1]; po, 15 mg, Week 12, 15 mg once daily, RA patients, with methotrexate, read-out: AUC0-τ, Geometric mean)?
A: 1530 ng·h/mL

Q: And the AUC ([1]; po, 15 mg, Week 12, 15 mg once daily, RA patients, with methotrexate, read-out: AUC0-τ, Median)?
A: 1480 ng·h/mL

Q: And the Cmax ([1]; po, 15 mg, Week 12, 15 mg once daily, RA patients, with methotrexate, read-out: Cmax, Geometric mean)?
A: 79.7 ng/mL

Q: What about the Cmax ([1]; po, 15 mg, Week 12, 15 mg once daily, RA patients, with methotrexate, read-out: Cmax, Median) of the same molecule?
A: 91.6 ng/mL

Q: And the half-life ([1]; po, 15 mg, Week 12, 15 mg once daily, RA patients, with methotrexate, read-out: T1/2 (apparent terminal half-life), Geometric mean (converted))?
A: 77.1 h

Q: What about the half-life ([1]; po, 15 mg, Week 12, 15 mg once daily, RA patients, with methotrexate, read-out: T1/2 (apparent terminal half-life), Median (converted)) of the same molecule?
A: 77.6 h

Q: And the Tmax ([1]; po, 15 mg, Week 12, 15 mg once daily, RA patients, with methotrexate, read-out: Tmax, Median)?
A: 4 h

Q: And the AUC ([1]; po, 37.5 mg, Day 1 (equivalent to AUC0-t), 37.5 mg, RA patients, with methotrexate, read-out: AUC0-τ, Geometric mean)?
A: 689 ng·h/mL

Q: What about the AUC ([1]; po, 37.5 mg, Day 1 (equivalent to AUC0-t), 37.5 mg, RA patients, with methotrexate, read-out: AUC0-τ, Median) of the same molecule?
A: 697 ng·h/mL

Q: What about the Cmax ([1]; po, 37.5 mg, Day 1, 37.5 mg, RA patients, with methotrexate, read-out: Cmax, Geometric mean) of the same molecule?
A: 41.7 ng/mL

Q: And the Cmax ([1]; po, 37.5 mg, Day 1, 37.5 mg, RA patients, with methotrexate, read-out: Cmax, Median)?
A: 41.8 ng/mL

Q: And the Tmax ([1]; po, 37.5 mg, Day 1, 37.5 mg, RA patients, with methotrexate, read-out: Tmax, Median)?
A: 5.03 h

Q: What about the AUC(0-t) ([1]; po, 37.5 mg, Week 12, 37.5 mg once daily, RA patients, with methotrexate, read-out: AUC0-t, Geometric mean) of the same molecule?
A: 15900 ng·h/mL

Q: And the AUC(0-t) ([1]; po, 37.5 mg, Week 12, 37.5 mg once daily, RA patients, with methotrexate, read-out: AUC0-t, Median)?
A: 17500 ng·h/mL

Q: And the AUC ([1]; po, 37.5 mg, Week 12, 37.5 mg once daily, RA patients, with methotrexate, read-out: AUC0-τ, Geometric mean)?
A: 4040 ng·h/mL

Q: What about the AUC ([1]; po, 37.5 mg, Week 12, 37.5 mg once daily, RA patients, with methotrexate, read-out: AUC0-τ, Median) of the same molecule?
A: 4540 ng·h/mL

Q: And the Cmax ([1]; po, 37.5 mg, Week 12, 37.5 mg once daily, RA patients, with methotrexate, read-out: Cmax, Geometric mean)?
A: 218 ng/mL

Q: And the Cmax ([1]; po, 37.5 mg, Week 12, 37.5 mg once daily, RA patients, with methotrexate, read-out: Cmax, Median)?
A: 238 ng/mL

Q: What about the half-life ([1]; po, 37.5 mg, Week 12, 37.5 mg once daily, RA patients, with methotrexate, read-out: T1/2 (apparent terminal half-life), Geometric mean (converted)) of the same molecule?
A: 111 h

Q: And the half-life ([1]; po, 37.5 mg, Week 12, 37.5 mg once daily, RA patients, with methotrexate, read-out: T1/2 (apparent terminal half-life), Median (converted))?
A: 107 h

Q: And the Tmax ([1]; po, 37.5 mg, Week 12, 37.5 mg once daily, RA patients, with methotrexate, read-out: Tmax, Median)?
A: 3.99 h
